Results on two compounds are retold here after patent publication US20160349268A1, “STEPWISE ASSEMBLED CAPTURE COMPOUNDS COMPRISING A CLEAVABLE FUNCTION AND METHOD FOR ISOLATING AND/OR CHARACTERIZING BIOMOLECULES OR BIOMOLECULE FRAGMENTS, IN PARTICULAR PROTEINS OR PROTEIN FRAGMENTS, OF COMPLEX MIXTURES” (CAPROTEC BIOANALYTICS GMBH, priority 2014, published 2016).

Series [1] deals with T1, Ribosomal RNA small subunit methyltransferase G (Escherichia coli, UniProt P0A6U5).
T1 construct: prepared from the DH5a derivative of the E. coli K-12 strain; endogenous in cells; host or cells: E. coli K-12 DH5a lysate
In words: Click-and-cleave with proteins/lysate, nanoLC/MS2 protein quantification of gel slices. The format is binding, E. coli K-12 strain. The following applies: Cleavage, compound 2.5 μM, gel slice around 25 kDa. Here is the method: (§1) Compound 11 (final concentration 2.5 μM) was incubated for 5 min at 4° C. with a lysate (final total protein concentration 5 mg/ml) prepared from the DH5a derivative of the E. coli K-12 strain in phosphate buffered saline (final volume 100 μl). In a so called competition control (designated “C” as opposed to “A” for CCMS assay without the competitor SAH) carried out side-by-side, S-adenosyl-L-homocysteine (SAH) (final concentration 250 μM) was added to the lysate before compound 11 to compete for the binding of the SAH selectivity function of 11 to SAH binding proteins such as S-adenosyl-L-methionine (SAM) dependent methyltransferases.
(§2) The samples were irradiated with UV light (λmax=310 nm) for 5 min in the caproBox (caprotec bioanalytics, Berlin, Germany) at about 4° C. to activate the reactivity function of 11 and form the covalent cross-link to proteins leading to 11-protein conjugates. Due to the SAH selectivity function in 11. SAH binding proteins will be selectively cross-linked to 11 and this selective crosslink will be diminished or inhibited in the competition control “C”.
(§3) The samples “A” and “C” were incubated with 250 μg 13 (CPT601, CCB 4, trans-cyclooctene (TCO) modified controlled pore glass (CPG). CPG-TCO beads), respectively, over night at 4° C. with rotation to keep the CPG beads (13) in suspension. During this time the 11-protein conjugates covalently bound to 13 by the TCO-tetrazine click reaction to form 13-11-protein conjugates. Selective binding of 11-protein conjugates to 13 was shown by taking 5 μl samples of “A” and “C”, respectively, before and after incubation with 13 and incubating these samples with 18 (final concentration 10 μM, CPT533. Probe 3, TCO-TAMRA) for 15 min at room temperature. Formed by the TCO-tetrazine click reaction, the fluorescent 18-11-protein conjugates were detected as in-gel fluorescent bands after SDS-PAGE. In the samples taken after incubation with 13, less in-gel fluorescent bands (18-11-protein conjugates) were detected than in the samples taken before incubation with 13, showing that 11-protein conjugates had reacted with 13 to form 13-11-protein conjugates.
(§4) The supernating solution was separated from the 13-11-protein conjugates after centrifugation in a table top centrifuge and the CPG beads containing the 13-11-protein conjugates were washed by re-suspending in fresh solution and removal of the supernatant after centrifugation (three times with 200 μl 4×SL Buffer, three times with 200 μl 50% acetonitrile).
(§5) The washed CPG beads containing the 13-11-protein conjugates were divided into two aliquots, respectively, for “A” and “C”. One aliquot was incubated with 10 mM 2-nitrobenzhydrazide and 10 mM HCl in 10 μl 50% acetonitrile (final concentrations and volume) at room temperature for 1 h while keeping the CPG beads containing the 13-11-protein conjugates in suspension by rotation yielding proteins with attached cleaved off photo-reacted reactivity function. As a control, the second aliquot of the CPG beads containing the 13-11-protein conjugates was treated the same way side-by-side but without 2-nitrobenzhydrazide and HCl. The proteins in the solutions supernating (cleaved) the CPG beads were analyzed by SDS-PAGE (4-20% Tris-Glycine gradient gels, 15 well, 1.0 mm; Novex® life Technologes® Ref. EC60255BOX, 25 min run time at 300 V) followed by silver staining (ProteoSilver Silver Stain Kit, Sigma).
(§6) Gel slices were cut out around 25 kDa in each gel lane corresponding to the molecular weight (height) of the specific gel lane marked by the red arrow in FIG. 13. The gel slices were treated with trypsin and the resulting peptides were analyzed by nanoLC/MS^2 (LTQ Orbitrap) followed by automatic software based protein identification and quantification (MaxQuant software package). […]

Series [2] deals with T2, 5-methylthioadenosine/S-adenosylhomocysteine nucleosidase (Escherichia coli, UniProt P0AF12).
T2 construct: prepared from the DH5a derivative of the E. coli K-12 strain; endogenous in cells; host or cells: E. coli K-12 DH5a lysate
The series is described as above. The format is binding, E. coli K-12 strain. The following applies: compound 2.5 μM, gel slice around 25 kDa. On the procedure:
as §1, §2, §3, §4, §5, §6

In series [3] the target is T3, SAH binding protein (Escherichia coli, UniProt P0AF12).
T3 construct: prepared from the DH5a derivative of the E. coli K-12 strain; endogenous in cells; host or cells: E. coli K-12 DH5a lysate
The experiment in a line: Click-and-cleave with proteins/lysate, SDS-PAGE/silver stain. Further details: species or system E. coli K-12 strain. The following applies: cleavage conditions (10 mM 2-nitrobenzhydrazide and 10 mM HCl in 50% acetonitrile). Here is the method: Compound 11 (final concentration 2.5 μM) was incubated for 5 min at 4° C. with a lysate (final total protein concentration 5 mg/ml) prepared from the DH5a derivative of the E. coli K-12 strain in phosphate buffered saline (final volume 100 μl). In a so called competition control (designated “C” as opposed to “A” for CCMS assay without the competitor SAH) carried out side-by-side, S-adenosyl-L-homocysteine (SAH) (final concentration 250 μM) was added to the lysate before compound 11 to compete for the binding of the SAH selectivity function of 11 to SAH binding proteins such as S-adenosyl-L-methionine (SAM) dependent methyltransferases. […]
The samples “A” and “C” were incubated with 250 μg 13 (CPT601, CCB 4, trans-cyclooctene (TCO) modified controlled pore glass (CPG). CPG-TCO beads), respectively, over night at 4° C. with rotation to keep the CPG beads (13) in suspension. […] Formed by the TCO-tetrazine click reaction, the fluorescent 18-11-protein conjugates were detected as in-gel fluorescent bands after SDS-PAGE. In the samples taken after incubation with 13, less in-gel fluorescent bands (18-11-protein conjugates) were detected than in the samples taken before incubation with 13, showing that 11-protein conjugates had reacted with 13 to form 13-11-protein conjugates. […]

Series [4] addresses T4, tRNA (guanine-N(7)-)-methyltransferase (Escherichia coli, UniProt P0A8I5).
T4 construct: prepared from the DH5a derivative of the E. coli K-12 strain; endogenous in cells; host or cells: E. coli K-12 DH5a lysate
In words: Click-and-cleave with proteins/lysate, nanoLC/MS2 protein quantification of gel slices. The format is binding, E. coli K-12 strain. The note with it: A (without competitor SAH), Cleavage; compound 2.5 μM, gel slice around 25 kDa. Here is the method:
as §1, §2, §3, §4, §5, §6

In series [5] the target is T5, tRNA (cmo5U34)-methyltransferase (Escherichia coli, UniProt P76290).
T5 construct: prepared from the DH5a derivative of the E. coli K-12 strain; endogenous in cells; host or cells: E. coli K-12 DH5a lysate
The series is described as above. The following applies: Cleavage, compound 2.5 μM, gel slice around 25 kDa. The format is binding, E. coli K-12 strain. Here is the method: as §1, §2, §3, §4, §5, §6

The nature of series [6]: Click-and-cleave without proteins/lysate (release of cleaved off photo-reacted reactivity function 15, LC-MS). The format is physicochemical. The following applies: for Area/a.u. of LC-MS EIC 249.10 peak at 1.75 min (cleaved off photo-reacted reactivity function 15): starting material bound to CPG-TCO beads 13. On the procedure: A solution of 100 μL 2.5 μM 11 (CPT727, Capture Compound bearing tetrazine as sorting function and a chemically cleavable photo-reactivity function) in phosphate buffered saline (PBS) was irradiated with UV light (λmax=310 nm) for 5 min at 4° C. in the caproBox (caprotec bioanalytics, Berlin. Germany) to activate the reactivity function yielding 12 (Scheme 12).
The resulting solution was incubated with 2 mg 13 (CPT601, CCB 4, trans-cyclooctene (TCO) modified controlled pore glass (CPG), CPG-TCO beads) over night at 4° C. to covalently bind compound 12 to 13 by the TCO-tetrazine click reaction yielding 14 (Scheme 12). During this time, 13 was kept in suspension by rotation.
Unbound 12 was removed by separating the supernating solution from 14 after centrifugation in a table top centrifuge and washing the solid 14 by re-suspending in fresh solution and removal of the supernatant after centrifugation (three times with 200 μl SL Buffer (50 mM Tris/HCl, 320 mM beta-mercaptoethanol, 2.5% sodium dodecylsulfate, 0.05% bromophenol blue, 10% glycerol, pH 6.8), three times with 200 μl 50% acetonitrile).
The washed 14 was divided into two aliquots. One aliquot was incubated with 10 mM 2-nitrobenzhydrazide and 10 mM HCl in 10 μl 50% acetonitrile (final concentrations and volume) at room temperature for 1 h while keeping 14 in suspension by rotation yielding the cleaved off photo-reacted reactivity function 15 (Scheme 12). As a control, the second aliquot of 14 was treated the same way side-by-side but without 2-nitrobenzhydrazide and HCl. The solutions supernating (cleaved) 14 were analyzed by LC-MS.
The same procedure was performed side-by-side using 16 (CPT634, Capture Compound bearing tetrazine as sorting function and non-cleavable photo-reactivity function) instead of 11.

[7] abbreviates: C (competition control, SAH 250 μM).
Setting [8] is: A (without competitor SAH), Cleavage (10 mM 2-nitrobenzhydrazide, 10 mM HCl).
Where [9] appears, read: A (without competitor SAH), no Cleavage.
[10] abbreviates: C (competition control, SAH 250 μM), Cleavage.
The mark [11] stands for this setting: C (competition control, SAH 250 μM), no Cleavage.

T1 sequence (P0A6U5 whole entry): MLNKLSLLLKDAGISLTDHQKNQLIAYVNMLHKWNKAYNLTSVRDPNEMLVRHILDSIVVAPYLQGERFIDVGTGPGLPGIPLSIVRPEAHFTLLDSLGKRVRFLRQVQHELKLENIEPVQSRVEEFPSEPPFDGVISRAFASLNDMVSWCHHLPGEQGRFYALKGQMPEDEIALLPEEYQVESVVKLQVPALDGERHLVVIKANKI
T2 sequence (P0AF12 whole entry): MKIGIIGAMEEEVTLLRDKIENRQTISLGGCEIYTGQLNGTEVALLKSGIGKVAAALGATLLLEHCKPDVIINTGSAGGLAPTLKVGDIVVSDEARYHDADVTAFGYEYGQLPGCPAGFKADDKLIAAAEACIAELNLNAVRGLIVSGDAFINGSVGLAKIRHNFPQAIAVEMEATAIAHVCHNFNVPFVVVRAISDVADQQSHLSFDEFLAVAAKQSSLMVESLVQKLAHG
T3 sequence (P0AF12 whole entry): as above
T5 sequence (P76290 whole entry): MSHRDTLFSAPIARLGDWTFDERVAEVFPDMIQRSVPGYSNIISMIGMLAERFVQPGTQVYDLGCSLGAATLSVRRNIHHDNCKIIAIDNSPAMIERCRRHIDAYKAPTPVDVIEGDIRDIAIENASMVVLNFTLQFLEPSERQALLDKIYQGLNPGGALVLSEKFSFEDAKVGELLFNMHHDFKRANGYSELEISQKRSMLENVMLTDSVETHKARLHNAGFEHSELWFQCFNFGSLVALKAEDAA
T4 sequence (P0A8I5 whole entry): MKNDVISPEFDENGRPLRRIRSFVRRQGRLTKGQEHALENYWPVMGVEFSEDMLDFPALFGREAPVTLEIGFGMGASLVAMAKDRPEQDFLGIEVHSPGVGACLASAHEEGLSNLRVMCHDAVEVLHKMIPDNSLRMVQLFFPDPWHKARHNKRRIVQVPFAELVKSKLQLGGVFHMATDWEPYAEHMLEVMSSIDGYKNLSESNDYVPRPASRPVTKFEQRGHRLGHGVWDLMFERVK

Consider `Cc1nnc(-c2ccc(CN(CC(=O)NCCCCNc3ncnc4c3ncn4C3OC(CSCC[C@H](N)C(=O)O)C(O)C3O)C(=O)c3ccc(C4(C(F)(F)F)N=N4)cc3)cc2)nn1` (some centres unmarked) [Compound 16], for which the Normalized protein intensities in series [1] (A (without competitor SAH)) worked out at 1.5E+05; in series [1] (setting [7]) it was 7.5E+04; in series [2] (setting [8]), 7.2E+06; in series [2] (setting [9]) it was 1.9E+05; in series [2] (setting [10]) it was 7.9E+05; in series [2] (setting [11]), 2.6E+05. For the same compound, the “gel band corresponding to a SAH binding protein after SDS-PAGE/silver stain” value in series [3] is “absent”.
Regarding `Cc1nnc(-c2ccc(CN(CC(=O)NCCCCNc3ncnc4c3ncn4C3OC(CSCC[C@H](N)C(=O)O)C(O)C3O)C(=O)CC/C=N/N(C)C(=O)c3ccc(C4(C(F)(F)F)N=N4)cc3)cc2)nn1` (stereo partly drawn) [Compound 11, (2S)-2-amino-4-((3,4-dihydroxy-5-(6-(4-(2-((E)-N-(4-(6-methyl-1,2,4,5-tetrazin-3-yl)benzyl)-4-(2-methyl-2-(4-(3-(trifluoromethyl)-3H-diazirin-3-yl)benzoyl)hydrazono)butanamido)acetamido)butylamino)-9H-purin-9-yl)tetrahydrofuran-2-yl)methylthio)butanoic acid], the Normalized protein intensities in series [4] amounted to 4.0E+05; in series [5] (A (without competitor SAH)), 1.6E+06; in series [5] (setting [7]), 2.9E+05; in series [1] (A (without competitor SAH)), 7.8E+05; in series [1] (setting [7]), 3.6E+05; in series [2] (setting [8]), 9.0E+07. The results for the Normalized protein intensities in series [2] (setting [9]), in series [2] (setting [10]) and in series [2] (setting [11]) were 4.0E+06, 2.2E+06 and 1.0E+06, respectively. For the same compound, the “gel band corresponding to a SAH binding protein after SDS-PAGE/silver stain” value in series [3] was “present”. The “fold higher intensity of 15 with 2-nitrobenzhydrazide and HCl than without” value in series [6] (10 mM 2-nitrobenzhydrazide, 10 mM HCl vs 50% acetonitrile only) is reported as “more than 50 fold”. In addition, the “Area/a.u. of LC-MS EIC 249.10 peak at 1.75 min (cleaved off photo-reacted reactivity function 15)” value in series [6] (cleavage condition 10 mM 2-nitrobenzhydrazide, 10 mM HCl in 50% acetonitrile) came to 26722302 a.u; in series [6] (cleavage condition 50% acetonitrile), 491625 a.u.
